Values quoted from earlier work in US11524087B2, “Microwave assisted methods and systems for surface decontamination” (priority 2019, dated 2022).

[O][Cl+][O-] [CD, chlorine dioxide]
short term exposure limit (STEL) (15-minute): 0.25 ppm
immediately damaging to life and health (IDLH) level (NIOSH): 5 ppm
permissible exposure limit (PEL) (OSHA): 0.1 ppm
